This note sets out measurements from patent publication US7838023B2, “Furoxan compounds, compositions and methods of use” (NitroMed, Inc., priority 2005, dated 2010).

Data set [1] deals with Human coronary artery endothelial cells (EC). Briefly: Endothelial cell (EC) antiproliferation assay. The following applies: inhibition of proliferation, viable cell count ~68 hours after addition. Format: cell-based. The protocol:
(§1) Human coronary artery smooth muscle cells (SMC) and endothelial cells (EC) were supplied by Cambrex Bio Science Walkersville, Inc. (Walkersville, MD). The smooth muscle cells were maintained in a basal medium, EBM (Cambrex Bio Science Walkersville, Inc), without phenol red and supplemented with 5% (v/v) fetal bovine serum (FBS), human recombinant epidermal growth factor (EGF), human recombinant fibroblast growth factor (FGF), bovine insulin, 50 μg/mL gentamicin sulfate, and 50 ng/mL amphotericin B (all obtained from Cambrex Bio Science Walkersville, Inc. as SMGM2 SingleQuots). The endothelial cells were grown in a modified EGM2-MV medium (Cambrex Bio Science Walkersville, Inc.), which had the same, phenol red-free, basal medium, EBM, as used in the smooth muscle cell medium, but were supplemented with 5% (v/v) fetal bovine serum (FBS), human recombinant epidermal growth factor (EGF), human recombinant fibroblast growth factor (FGF), vascular endothelial growth factor (VEGF), recombinant insulin-like growth factor-1 (IGF-1), ascorbic acid, 50 μg/mL gentamicin sulfate, and 50 ng/mL amphotericin B (all supplied by Cambrex Bio Science Walkersville, Inc. as EGM2-MV SingleQuots). All cells were incubated under humidified 95% air-5% CO2 at 37° C.
(§2) For the SMC/EC Antiproliferation Assay, the cells were seeded at 4×10^4 viable cells in 2 mL of the appropriate medium per well of a Corning tissue culture 24 well plate (Corning, N.Y.). Stock solutions of the test compounds were prepared just prior to addition to the cells by dissolving in DMSO at a concentration 1000 times the highest concentration to be assayed. This stock solution was diluted, as required, with DMSO to the required concentration. On the same day the cells were seeded, but after they had attached and spread out (about 3 hr), each test compound in varying concentrations (2 μL of the diluted stock solutions) was added to four replicate wells (n=4) for each concentration. Control cultures received 2 μL of DMSO per well (n=4). On the following morning, the cultures were examined microscopically and their condition, including evidence of cytotoxicity, recorded. ˜68 hours after the addition of the test compound, the cultures were examined microscopically and the viable cells counted with a hemacytometer following trypsinization with 0.25% trypsin-1 mM EDTA. Trypan Blue dye exclusion was used to discriminate between viable and dead cells. The results are presented as % of the control viable cell count (mean±SEM) and are used to determine the IC50 for the inhibition of proliferation of vascular smooth muscle and endothelial cells.

In data set [2] the test system is Human coronary artery smooth muscle cells (SMC). Briefly: Vascular smooth muscle cell (SMC) antiproliferation assay. It is filed as cell-based. The following applies: inhibition of proliferation, viable cell count ~68 hours after addition. The protocol:
as §1, §2

Where [3] appears, read: Homo sapiens, Endothelial cell, EC strain 3033, read-out: EC Strain 3033, IC50.
The mark [4] stands for this setting: Homo sapiens, SMC strain 3033, read-out: SMC Strain 3033, IC50.

Where a name gives a salt, the structure may show the parent alone. Read-outs that look alike come from different tables or passages of the source.

In the case of `O=S(=O)(c1ccccc1)c1c(OCCN(CCOc2no[n+]([O-])c2S(=O)(=O)c2ccccc2)CCOc2no[n+]([O-])c2S(=O)(=O)c2ccccc2)no[n+]1[O-]` [Example 1d, Ethanamine, 2-[[5-oxido-4-(phenylsulfonyl)-1,2,5-oxadiazol-3-yl]oxy]-N,N-bis[2-[[5-oxido-4-(phenylsulfonyl)-1,2,5-oxadiazol-3-yl]oxy]ethyl]-, 2-hydroxy-1,2,3-propanetricarboxylate], the IC50 (usually the concentration needed to halve the response being measured) in data set [1] (setting [3]) is 0.447 µM; in data set [1] (Homo sapiens, Endothelial cell, EC strain 5675-1, read-out: EC Strain 5675-1, IC50), 0.46 µM; in data set [2] (setting [4]), 0.006 µM; in data set [2] (Homo sapiens, SMC strain 5286, read-out: SMC Strain 5286, IC50), 0.017 µM; in data set [2] (Homo sapiens, SMC strain 9557-1, read-out: SMC Strain 9557-1, IC50), 0.008 µM.

With `O=S(=O)(c1ccccc1)c1c(OCCNCCOc2no[n+]([O-])c2S(=O)(=O)c2ccccc2)no[n+]1[O-]` [Example 2b, Ethanamine, 2-[[5-oxido-4-(phenylsulfonyl)-1,2,5-oxadiazol-3-yl]oxy]-N-[2-[[5-oxido-4-(phenylsulfonyl)-1,2,5-oxadiazol-3-yl]oxy]ethyl]-, 2-hydroxy-1,2,3-propanetricarboxylate (1:1) (salt)], the IC50 in data set [1] (setting [3]) is 0.69 µM; in data set [2] (setting [4]) it was 0.071 µM.

In the case of `O=S(=O)(c1ccccc1)c1c(OCC(COc2no[n+]([O-])c2S(=O)(=O)c2ccccc2)Oc2no[n+]([O-])c2S(=O)(=O)c2ccccc2)no[n+]1[O-]` [Example 4], the 50% inhibitory concentration (IC50) in data set [1] (EC strain 3033, read-out: EC Strain 3033, IC50) is 0.346 µM; in data set [2] (SMC strain 5286, read-out: SMC Strain 5286, IC50), 0.013 µM; in data set [2] (SMC strain 9557-1, read-out: SMC Strain 9557-1, IC50), 0.009 µM.

With `O=S(=O)(c1ccccc1)c1c(OCCOc2no[n+]([O-])c2S(=O)(=O)c2ccccc2)no[n+]1[O-]` [Example 5], the melting point (commonly the temperature, or range, at which the solid turns liquid) fell in the range of 187 to 189 °C.
